The values below come from US12077503B2, “Substituted cyclic amides and their use as herbicides” (FMC CORPORATION, priority 2015, dated 2024).

Like-named read-outs stand apart in the source and are kept apart here.

Holding throughout (type): in vivo
The subject of assay [1] is corn (Zea mays). Nature of the assay: Test A postemergence. The conditions noted are these: Zea mays, post-emergence, 240 h. The gist of the method: (§1)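 In a loam soil and sand blend, planted seeds got a preemergence directed soil spray, and young plants at the one- to two-leaf stage, 2–10 cm high, got a postemergence application; ~10 d greenhouse hold; injury rated visually, 0 = none, 100 = complete control.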

Assay [2] deals with Kochia (Kochia scoparia). Put plainly: Test A postemergence. The following applies: Bassia scoparia, post-emergence, 240 h, 125 g ai/ha, postemergence; visual injury after approximately 10 d; 0 to 100 scale (0 no effect, 100 complete control); read-out: Plant response rating, Kochia. The gist of the method:
as §1

In assay [3] the test system is blackgrass (Alopecurus myosuroides). Put plainly: Test A postemergence. The conditions noted are these: Alopecurus myosuroides, post-emergence, 240 h; for pest or weed control at 125 g/ha: 125 g ai/ha. The method in brief:
as §1

The subject of assay [4] is ryegrass, Italian (Italian ryegrass, Lolium multiflorum). Put plainly: Test A postemergence. The following applies: Lolium multiflorum, post-emergence, 240 h; for pest or weed control at 125 g/ha: 125 g ai/ha. The gist of the method:
as §1

Assay [5] concerns barnyardgrass (Echinochloa crus-galli). Nature of the assay: Test A postemergence. The conditions noted are these: Echinochloa crus-galli, post-emergence, 240 h; for pest or weed control at 125 g/ha: 125 g ai/ha. The gist of the method: as §1
Assay [6] relates to pigweed (Amaranthus retroflexus). Put plainly: Test A postemergence. The conditions noted are these: Amaranthus retroflexus, post-emergence, 240 h; for pest or weed control at 125 g/ha: 125 g ai/ha. The gist of the method: as §1
The subject of assay [7] is Galium (catchweed bedstraw, Galium aparine). Nature of the assay: Test A postemergence. The conditions noted are these: Galium, post-emergence, 240 h; for pest or weed control at 125 g/ha: 125 g ai/ha. The method in brief:
as §1

The test system of assay [8] is giant foxtail (Setaria faberii). Nature of the assay: Test A postemergence. The conditions noted are these: Setaria faberi, post-emergence, 240 h; for pest or weed control at 125 g/ha: 125 g ai/ha. The method in brief: as §1
Assay [9] relates to ragweed (common ragweed, Ambrosia elatior). Put plainly: Test A postemergence. The following applies: Ambrosia artemisiifolia, post-emergence, 240 h; for pest or weed control at 125 g/ha: 125 g ai/ha. The method in brief: as §1
Assay [10] concerns sedge, umbrella (small-flower umbrella sedge, Cyperus difformis). Nature of the assay: Test B flooded paddy test. The following applies: Cyperus difformis, Flood, 250 g ai/ha. The gist of the method: (§2)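 Greenhouse paddy pots with 2-leaf stage plants received compound by direct addition to floodwater 3 cm deep, kept at that level. Scored visually at 13–15 d versus controls (0 no effect; 100 complete control).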

Assay [11] relates to barnyardgrass (Echinochloa crus-galli). Put plainly: Test B flooded paddy test. The conditions noted are these: Echinochloa crus-galli, Flood, 250 g ai/ha. The method in brief:
as §2

In assay [12] the test system is ducksalad (Heteranthera limosa). Put plainly: Test B flooded paddy test. The following applies: Heteranthera limosa, Flood, 250 g ai/ha. The method in brief: as §2
Assay [13] deals with rice (Oryra sativa). Nature of the assay: Test B flooded paddy test. The following applies: Oryza sativa, Flood, 250 g ai/ha. The gist of the method:
as §2

For assay [14], the system named is ryegrass, Italian (Italian ryegrass, Lolium multiflorum). Put plainly: Test A preemergence. The conditions noted are these: Lolium multiflorum, pre-emergence, 240 h; for pest or weed control at 125 g/ha: 125 g ai/ha; for pest or weed control at 500 g/ha: 500 g ai/ha. The gist of the method: as §1
Assay [15] relates to wheat (Triticum aestivum). Put plainly: Test A postemergence. The conditions noted are these: Triticum aestivum, post-emergence, 240 h, Postemergence. The method in brief: as §1

In assay [1] (125 g ai/ha, postemergence, visual injury after approximately 10 d, 0 to 100 scale (0 no effect, 100 complete control)), `Cc1cc([C@H]2CNC(=O)[C@@H]2C(=O)Nc2ccc(F)cc2F)ccc1Cl` [Compound 791] yielded a Corn plant response rating (crop injury, 0 = no effect, 100 = complete kill) at 125 g/ha of 0%. For the same compound, the pest or weed control at 125 g/ha in assay [2] worked out at 20%; in assay [3] (postemergence, visual injury after approximately 10 d, 0 to 100 scale (0 no effect, 100 complete control), read-out: Plant response rating, Blackgrass), 0%; in assay [4] (postemergence, visual injury after approximately 10 d, 0 to 100 scale (0 no effect, 100 complete control), read-out: Plant response rating, Ryegrass, Italian), 0%; in assay [5] (postemergence, visual injury after approximately 10 d, 0 to 100 scale (0 no effect, 100 complete control), read-out: Plant response rating, Barnyardgrass) it was 60%; in assay [6] (postemergence, visual injury after approximately 10 d, 0 to 100 scale (0 no effect, 100 complete control), read-out: Plant response rating, Pigweed) it was 0%; in [7] (postemergence, visual injury after approximately 10 d, 0 to 100 scale (0 no effect, 100 complete control), read-out: Plant response rating, Galium) it was 60%. For the same compound, the pest or weed control at 125 g/ha in assay [8] (postemergence, visual injury after approximately 10 d, 0 to 100 scale (0 no effect, 100 complete control), read-out: Plant response rating, Foxtail, Giant) was 30%; in assay [9] (postemergence, visual injury after approximately 10 d, 0 to 100 scale (0 no effect, 100 complete control), read-out: Plant response rating, Ragweed) it was 0%; in assay [14] (preemergence, visual rating after approx. 10 d, 0 to 100 scale where 0 is no effect and 100 is complete control, read-out: Plant response rating, Ryegrass, Italian), 0%. The pest or weed control at 250 g/ha in assay [10] (scale of 0 to 100 where 0 is no effect and 100 is complete control, read-out: Sedge, Umbrella plant response rating) amounted to 0%; in assay [11] (scale of 0 to 100 where 0 is no effect and 100 is complete control, read-out: Barnyardgrass plant response rating) it was 0%; in assay [12] (scale of 0 to 100 where 0 is no effect and 100 is complete control, read-out: Ducksalad plant response rating), 100%; in [13] (scale of 0 to 100 where 0 is no effect and 100 is complete control, read-out: Rice plant response rating), 0%. For the same compound, the pest or weed control at 500 g/ha in [14] (Preemergence, visual injury vs untreated controls after approximately 10 d, read-out: Ryegrass, Italian plant response rating (0 to 100 scale where 0 is no effect and 100 is complete control)) stood at 20%.
Consider `CN1C[C@H](c2ccc(C(F)(F)F)cc2)[C@@H](C(=O)Nc2cccc(C#N)c2F)C1=O` [Compound 1381], for which the plant injury at 125 g/ha in assay [1] (125 g ai/ha, Postemergence, visual rating about 10 d after treatment, read-out: Corn plant response rating (0 to 100 scale)) is 40%; in assay [15] (125 g ai/ha, visual rating about 10 d after treatment, read-out: Wheat plant response rating (0 to 100 scale)), 30%. In [1] (Postemergence, 500 g ai/ha, visual injury, 0 to 100 scale (0 no effect, 100 complete control), approx. 10 d), this compound yielded a Corn plant response rating (crop injury, 0 = no effect, 100 = complete kill) at 500 g/ha of 60%. Also, the pest or weed control at 125 g/ha was determined as 40% in assay [3] (Postemergence, visual rating about 10 d after treatment, read-out: Blackgrass plant response rating (0 to 100 scale)); 50% in [4] (Postemergence, visual rating about 10 d after treatment, read-out: Ryegrass, Italian plant response rating (0 to 100 scale)); 80% in [5] (Postemergence, visual rating about 10 d after treatment, read-out: Barnyardgrass plant response rating (0 to 100 scale, 0 no effect, 100 complete control)); 70% in assay [6] (Postemergence, visual rating about 10 d after treatment, read-out: Pigweed plant response rating (0 to 100 scale)); 50% in assay [7] (Postemergence, visual rating about 10 d after treatment, read-out: Galium plant response rating (0 to 100 scale)); 90% in [8] (Postemergence, visual rating about 10 d after treatment, read-out: Foxtail, Giant plant response rating (0 to 100 scale)). In addition, the pest or weed control at 125 g/ha was 50% in assay [9] (Postemergence, visual rating about 10 d after treatment, read-out: Ragweed plant response rating (0 to 100 scale)) and 30% in assay [14] (Preemergence, 0 to 100 scale (0 no effect, 100 complete control), read-out: Plant response rating, Ryegrass, Italian). Moreover, the pest or weed control at 500 g/ha in [3] (Postemergence, 500 g ai/ha, visual injury, 0 to 100 scale (0 no effect, 100 complete control), approx. 10 d, read-out: Plant response rating, Blackgrass) stood at 60%; in assay [4] (Postemergence, 500 g ai/ha, visual injury, 0 to 100 scale (0 no effect, 100 complete control), approx. 10 d, read-out: Plant response rating, Ryegrass, Italian), 60%; in [5] (Postemergence, 500 g ai/ha, visual injury, 0 to 100 scale (0 no effect, 100 complete control), approx. 10 d, read-out: Plant response rating, Barnyardgrass), 80%; in assay [6] (Postemergence, 500 g ai/ha, visual injury, 0 to 100 scale (0 no effect, 100 complete control), approx. 10 d, read-out: Plant response rating, Pigweed), 70%; in assay [7] (Postemergence, 500 g ai/ha, visual injury, 0 to 100 scale (0 no effect, 100 complete control), approx. 10 d, read-out: Plant response rating, Galium) it was 60%; in [8] (Postemergence, 500 g ai/ha, visual injury, 0 to 100 scale (0 no effect, 100 complete control), approx. 10 d, read-out: Plant response rating, Foxtail, Giant), 90%. The pest or weed control at 500 g/ha was 60% in assay [9] (Postemergence, 500 g ai/ha, visual injury, 0 to 100 scale (0 no effect, 100 complete control), approx. 10 d, read-out: Plant response rating, Ragweed) and 50% in assay [14] (preemergence, 0 to 100 scale (0 no effect, 100 complete control), read-out: Plant response rating, Ryegrass, Italian). For the same compound, the plant injury at 500 g/ha in assay [15] (500 g ai/ha, visual injury, 0 to 100 scale (0 no effect, 100 complete control), approx. 10 d, read-out: Plant response rating, Wheat) was 50%. Also, the pest or weed control at 250 g/ha was determined as 0% in [10] (360 h, visually evaluated after 13 to 15 d, read-out: Plant response rating, Sedge, Umbrella (0 to 100 scale where 0 is no effect and 100 is complete control)); 65% in assay [11] (360 h, visually evaluated after 13 to 15 d, read-out: Plant response rating, Barnyardgrass (0 to 100 scale where 0 is no effect and 100 is complete control)); 100% in [12] (360 h, visually evaluated after 13 to 15 d, read-out: Plant response rating, Ducksalad (0 to 100 scale where 0 is no effect and 100 is complete control)); 0% in assay [13] (360 h, visually evaluated after 13 to 15 d, read-out: Plant response rating, Rice (0 to 100 scale where 0 is no effect and 100 is complete control)).
